In patent US10131652B2, “Pyrimidinyloxy benzene derivatives as herbicides” (E. I. DU PONT DE NEMOURS AND COMPANY, priority 2014, dated 2018):
Like-named read-outs stand apart in the source and are kept apart here.

Legend:
Type in all cases: in vivo
[1] = system: blackgrass (Alopecurus myosuroides); experiment: Test E pre-/postemergence plant response; conditions: scale 0 to 100, read-out: Plant response rating, Blackgrass; for pest or weed control at 16 g/ha: 16 g ai/ha; for pest or weed control at 31 g/ha: 31 g ai/ha; for pest or weed control at 62 g/ha: 62 g ai/ha; for pest or weed control at 125 g/ha: 125 g ai/ha
Summary of the method: (§1)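 Pre-emergence: seeds sown in silt loam soil and sprayed with test chemicals in a non-phytotoxic solvent/surfactant mix. Post-emergence: plants at 2–18 cm (1- to 4-leaf stage) in peat/vermiculite medium treated with the same formulation. Visual rating versus controls after 7–21 days, 0 (no effect) to 100 (complete control).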

[2] = system: chamomile (scentless chamomile, Matricaria inodora); experiment: Test E pre-/postemergence plant response; conditions: Tripleurospermum inodorum, scale 0 to 100, read-out: Plant response rating, Chamomile; for pest or weed control at 16 g/ha: 16 g ai/ha; for pest or weed control at 31 g/ha: 31 g ai/ha; for pest or weed control at 62 g/ha: 62 g ai/ha; for pest or weed control at 125 g/ha: 125 g ai/ha
Summary of the method: as §1

[3] = system: kochia (Kochia scoparia); experiment: Test E pre-/postemergence plant response; conditions: Bassia scoparia, scale 0 to 100, read-out: Plant response rating, Kochia; for pest or weed control at 16 g/ha: 16 g ai/ha; for pest or weed control at 31 g/ha: 31 g ai/ha; for pest or weed control at 62 g/ha: 62 g ai/ha; for pest or weed control at 125 g/ha: 125 g ai/ha
Summary of the method: as §1

[4] = system: oilseed rape (Brassica napus); experiment: Test E pre-/postemergence plant response; conditions: scale 0 to 100, read-out: Plant response rating, Oilseed Rape; for plant injury at 16 g/ha: 16 g ai/ha; for plant injury at 31 g/ha: 31 g ai/ha; for plant injury at 62 g/ha: 62 g ai/ha; for plant injury at 125 g/ha: 125 g ai/ha
Summary of the method: as §1

[5] = system: wild oat (Avena fatua); experiment: Test E pre-/postemergence plant response; conditions: scale 0 to 100, read-out: Plant response rating, Oat, Wild; for pest or weed control at 16 g/ha: 16 g ai/ha; for pest or weed control at 31 g/ha: 31 g ai/ha; for pest or weed control at 62 g/ha: 62 g ai/ha; for pest or weed control at 125 g/ha: 125 g ai/ha
Summary of the method: as §1

[6] = system: Brazilian crabgrass (Digitaria horizontalis); experiment: Test F pre-/postemergence plant response; conditions: Digitaria horizontalis, scale 0 to 100, read-out: Plant response rating, Crabgrass, Brazil
Summary of the method: (§2)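 Herbicidal effect judged by eye against controls, scored 0–100 (complete control = 100). Applications: pre-emergence onto seeded silt loam, post-emergence onto 2–18 cm seedlings; greenhouse, 14–21 days.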

[7] = system: green foxtail (Setaria viridis); experiment: Test F pre-/postemergence plant response; conditions: Setaria viridis, pre-emergence, scale 0 to 100, read-out: Plant response rating, Foxtail, Green
Summary of the method: as §2

[8] = system: johnsongrass (Sorghum halepense); experiment: Test F pre-/postemergence plant response; conditions: Sorghum halepense, pre-emergence, scale 0 to 100, read-out: Plant response rating, Johnsongrass
Summary of the method: as §2

[9] = system: wild poinsettia (Euphorbia heterophylla); experiment: Test F pre-/postemergence plant response; conditions: Euphorbia heterophylla, scale 0 to 100, read-out: Plant response rating, Poinsettia, Wild
Summary of the method: as §2

[10] = post-emergence, 8 g ai/ha Postemergence
[11] = post-emergence, 16 g ai/ha Postemergence
[12] = post-emergence, 31 g ai/ha Postemergence
[13] = post-emergence, 62 g ai/ha Postemergence
[14] = post-emergence, 125 g ai/ha Postemergence
[15] = pre-emergence, 8 g ai/ha Preemergence
[16] = pre-emergence, 16 g ai/ha Preemergence
[17] = pre-emergence, 31 g ai/ha Preemergence
[18] = pre-emergence, 125 g ai/ha Preemergence

**Q.** With FC(F)(F)c1cc(-c2ccccc2Oc2ncc(Cl)cn2)no1 [Compound 200, 5-chloro-2-[2-[5-(trifluoromethyl)-3-isoxazolyl]phenoxy]pyrimidine] as the compound, how does the pest or weed control at 16 g/ha ([1]; post-emergence, Postemergence) read?
**A.** 15%

**Q.** And the pest or weed control at 31 g/ha ([1]; post-emergence, Postemergence)?
**A.** 35%

**Q.** And the pest or weed control at 62 g/ha ([1]; post-emergence, Postemergence)?
**A.** 55%

**Q.** And the pest or weed control at 125 g/ha ([1]; post-emergence, Postemergence)?
**A.** 75%

**Q.** And the pest or weed control at 16 g/ha ([1]; pre-emergence, Preemergence)?
**A.** 25%

**Q.** And the pest or weed control at 31 g/ha ([1]; pre-emergence, Preemergence)?
**A.** 75%

**Q.** And the pest or weed control at 62 g/ha ([1]; pre-emergence, Preemergence)?
**A.** 90%

**Q.** What about the pest or weed control at 125 g/ha ([1]; pre-emergence, Preemergence) of the same compound?
**A.** 100%

**Q.** And the pest or weed control at 16 g/ha ([2]; post-emergence, Postemergence)?
**A.** 5%

**Q.** What about the pest or weed control at 31 g/ha ([2]; post-emergence, Postemergence) of the same compound?
**A.** 10%

**Q.** And the pest or weed control at 62 g/ha ([2]; post-emergence, Postemergence)?
**A.** 10%

**Q.** What about the pest or weed control at 125 g/ha ([2]; post-emergence, Postemergence) of the same compound?
**A.** 15%

**Q.** What about the pest or weed control at 16 g/ha ([2]; pre-emergence, Preemergence) of the same compound?
**A.** 25%

**Q.** What about the pest or weed control at 31 g/ha ([2]; pre-emergence, Preemergence) of the same compound?
**A.** 25%

**Q.** What about the pest or weed control at 62 g/ha ([2]; pre-emergence, Preemergence) of the same compound?
**A.** 60%

**Q.** What about the pest or weed control at 125 g/ha ([2]; pre-emergence, Preemergence) of the same compound?
**A.** 75%

**Q.** And the pest or weed control at 16 g/ha ([3]; post-emergence, Postemergence)?
**A.** 70%

**Q.** And the pest or weed control at 31 g/ha ([3]; post-emergence, Postemergence)?
**A.** 85%

**Q.** What about the pest or weed control at 62 g/ha ([3]; post-emergence, Postemergence) of the same compound?
**A.** 85%

**Q.** What about the pest or weed control at 125 g/ha ([3]; post-emergence, Postemergence) of the same compound?
**A.** 90%

**Q.** And the pest or weed control at 16 g/ha ([3]; pre-emergence, Preemergence)?
**A.** 70%

**Q.** And the pest or weed control at 31 g/ha ([3]; pre-emergence, Preemergence)?
**A.** 100%

**Q.** And the pest or weed control at 62 g/ha ([3]; pre-emergence, Preemergence)?
**A.** 100%

**Q.** What about the pest or weed control at 125 g/ha ([3]; pre-emergence, Preemergence) of the same compound?
**A.** 100%

**Q.** And the plant injury at 16 g/ha ([4]; post-emergence, Postemergence)?
**A.** 75%

**Q.** And the plant injury at 31 g/ha ([4]; post-emergence, Postemergence)?
**A.** 85%

**Q.** What about the plant injury at 62 g/ha ([4]; post-emergence, Postemergence) of the same compound?
**A.** 100%

**Q.** And the plant injury at 125 g/ha ([4]; post-emergence, Postemergence)?
**A.** 100%

**Q.** What about the plant injury at 16 g/ha ([4]; pre-emergence, Preemergence) of the same compound?
**A.** 60%

**Q.** And the plant injury at 31 g/ha ([4]; pre-emergence, Preemergence)?
**A.** 100%

**Q.** And the plant injury at 62 g/ha ([4]; pre-emergence, Preemergence)?
**A.** 100%

**Q.** What about the plant injury at 125 g/ha ([4]; pre-emergence, Preemergence) of the same compound?
**A.** 100%

**Q.** And the pest or weed control at 16 g/ha ([5]; post-emergence, Postemergence)?
**A.** 10%

**Q.** What about the pest or weed control at 31 g/ha ([5]; post-emergence, Postemergence) of the same compound?
**A.** 20%

**Q.** And the pest or weed control at 62 g/ha ([5]; post-emergence, Postemergence)?
**A.** 30%

**Q.** What about the pest or weed control at 125 g/ha ([5]; post-emergence, Postemergence) of the same compound?
**A.** 35%

**Q.** What about the pest or weed control at 16 g/ha ([5]; pre-emergence, Preemergence) of the same compound?
**A.** 0%

**Q.** What about the pest or weed control at 31 g/ha ([5]; pre-emergence, Preemergence) of the same compound?
**A.** 0%

**Q.** What about the pest or weed control at 62 g/ha ([5]; pre-emergence, Preemergence) of the same compound?
**A.** 30%

**Q.** And the pest or weed control at 125 g/ha ([5]; pre-emergence, Preemergence)?
**A.** 75%

**Q.** What about the pest or weed control at 8 g/ha [6, 10] of the same compound?
**A.** 10%

**Q.** And the pest or weed control at 16 g/ha [6, 11]?
**A.** 10%

**Q.** What about the pest or weed control at 31 g/ha [6, 12] of the same compound?
**A.** 15%

**Q.** And the pest or weed control at 62 g/ha [6, 13]?
**A.** 20%

**Q.** What about the pest or weed control at 125 g/ha [6, 14] of the same compound?
**A.** 20%

**Q.** And the pest or weed control at 8 g/ha [6, 15]?
**A.** 0%

**Q.** And the pest or weed control at 16 g/ha [6, 16]?
**A.** 90%

**Q.** What about the pest or weed control at 31 g/ha [6, 17] of the same compound?
**A.** 98%

**Q.** And the pest or weed control at 62 g/ha ([6]; pre-emergence, 62 g ai/ha Preemergence)?
**A.** 100%

**Q.** What about the pest or weed control at 125 g/ha [6, 18] of the same compound?
**A.** 100%

**Q.** What about the pest or weed control at 8 g/ha ([7]; 8 g ai/ha Preemergence) of the same compound?
**A.** 0%

**Q.** And the pest or weed control at 16 g/ha ([7]; 16 g ai/ha, Preemergence)?
**A.** 10%

**Q.** What about the pest or weed control at 31 g/ha ([7]; 31 g ai/ha, Preemergence) of the same compound?
**A.** 98%

**Q.** What about the pest or weed control at 125 g/ha ([7]; 125 g ai/ha, Preemergence) of the same compound?
**A.** 100%

**Q.** What about the pest or weed control at 62 g/ha ([7]; Preemergence) of the same compound?
**A.** 100%

**Q.** What about the pest or weed control at 8 g/ha ([8]; 8 g ai/ha Preemergence) of the same compound?
**A.** 0%

**Q.** And the pest or weed control at 16 g/ha ([8]; 16 g ai/ha Preemergence)?
**A.** 0%

**Q.** What about the pest or weed control at 31 g/ha ([8]; 31 g ai/ha Preemergence) of the same compound?
**A.** 5%

**Q.** And the pest or weed control at 125 g/ha ([8]; 125 g ai/ha Preemergence)?
**A.** 90%

**Q.** What about the pest or weed control at 62 g/ha ([8]; Preemergence) of the same compound?
**A.** 35%

**Q.** And the pest or weed control at 8 g/ha [9, 10]?
**A.** 35%

**Q.** What about the pest or weed control at 16 g/ha [9, 11] of the same compound?
**A.** 50%

**Q.** What about the pest or weed control at 31 g/ha [9, 12] of the same compound?
**A.** 40%

**Q.** And the pest or weed control at 62 g/ha [9, 13]?
**A.** 60%

**Q.** What about the pest or weed control at 125 g/ha [9, 14] of the same compound?
**A.** 80%

**Q.** And the pest or weed control at 8 g/ha [9, 15]?
**A.** 0%

**Q.** What about the pest or weed control at 16 g/ha [9, 16] of the same compound?
**A.** 0%

**Q.** And the pest or weed control at 31 g/ha [9, 17]?
**A.** 20%

**Q.** And the pest or weed control at 125 g/ha [9, 18]?
**A.** 70%

**Q.** And the pest or weed control at 62 g/ha ([9]; pre-emergence, Preemergence)?
**A.** 60%
